Experimental data: PubChem BioAssay (NCI)
Values joined by “and” are separate entries in the source; they are usually repeats but may differ in a detail not shown here. Equal values may be shown once.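 Exposure lasted 48 hours, with cells grown in 96-well plates and compounds tested at five concentrations. GI50 marks 50% less growth. Definition used: TGI = concentration required for complete inhibition of growth.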

Legend:
Assay in all cases: NCI-60 cell line screen, 48 h
[1] = tested on: A498 renal
[2] = tested on: A549 NSCLC
[3] = tested on: HCT-116 colon
[4] = tested on: IGROV1 ovarian
[5] = tested on: OVCAR-5 ovarian
[6] = tested on: RPMI-8226 leukemia
[7] = tested on: RXF 393 renal
[8] = tested on: SK-OV-3 ovarian
[9] = tested on: SNB-19 CNS
[10] = tested on: SNB-75 CNS

SMILES	TGI [1]	TGI [2]	TGI [3]	TGI [4]	TGI [5]	TGI [6]	TGI [7]	TGI [8]	TGI [9]	TGI [10]	GI50 [1] [µM]	GI50 [2]	GI50 [3] [µM]	GI50 [4]	GI50 [5] [µM]	GI50 [6] [µM]	GI50 [7]	GI50 [8]	GI50 [9]	GI50 [10]
CC1CC(C)C(C(O)CC2CC(=O)N(c3ccccc3)C(=O)C2)C(O)C1 (stereo not drawn)	> 100 µM	> 100 µM	> 100 µM	> 100 µM	> 100 µM	> 100 µM	> 100 µM	> 100 µM	> 100 µM	> 100 µM										
N#CCCN(CCC#N)c1ccc(C=Nc2ccc(F)cc2)cc1	> 100 µM	> 100 µM	> 100 µM	> 100 µM	> 100 µM	> 100 µM	> 100 µM	> 100 µM	> 100 µM	> 100 µM										
Cn1ccnc1C(=O)/C=C/c1ccc(C(=O)Nc2c(F)c(F)c(F)c(F)c2F)cc1	3.16 µM	4.16 µM	2.48 µM	3.98 µM	3.9 µM	2.54 µM	3.22 µM	10.1 µM	3.24 µM	2.69 µM	1.36	1.79 µM	1.17	1.75 µM	1.82	0.505	1.66 µM	3.24 µM	1.56 µM	1.33 µM
COc1ccc(/C=C\c2cc(OC)c(OC)c(OC)c2)c(NS(=O)(=O)c2ccc(C(C)(C)C)cc2)c1O	0.169 µM	33 µM	13.6 µM	35.8 µM	22.3 µM	25.6 µM	16 µM	45.9 µM	26.6 µM	14.1 µM	0.0241	0.626 µM	0.365	0.986 µM	0.626	0.508	0.0379 µM	1.42 µM	0.56 µM	0.231 µM
C=C(Cl)[C@@](Cl)(CBr)CC[C@@H](Br)C(C)(C)Cl	5.57 µM and 1.93 µM	4.12 µM and 4.11 µM	1.25 µM and 0.635 µM	32.2 µM and 32.6 µM	7.39 µM and 3.22 µM	1.48 µM and 0.473 µM	2.37 µM and 0.488 µM	22.2 µM and 26.3 µM	1.54 µM and 1.52 µM			1.67 µM		14.7 µM	2.45	0.0688	0.346 µM	8 µM	0.358 µM	1.35 µM
O=NN(CCCl)C(=O)NC1CCCCC1	155 µM	184 µM and 244 µM	50.2 µM and 105 µM	57.4 µM and 150 µM and 162 µM	168 µM and 363 µM	40.8 µM and 122 µM and 73.9 µM	32.9 µM and 102 µM and 143 µM	162 µM and 232 µM	118 µM and 194 µM	64.5 µM and 112 µM and 108 µM		45.6 µM and 92.2 µM	21	19.7 µM and 73.2 µM	247	27.1	18.1 µM and 76.4 µM	43.1 µM and 149 µM		23.3 µM and 42.1 µM
NC(N)=N/N=C(/c1ccccc1)c1ccccc1F	9.44 µM	36.8 µM	12.3 µM	> 50 µM	33.8 µM	> 82.1 µM	13.9 µM	37.9 µM	31.3 µM	21.7 µM	2.28	4.51 µM	2.37	2.89 µM	7.49	7.6	3 µM	4.82 µM	4.19 µM	0.661 µM
CCN(CC)CCOc1ccc2c(C)c(C(=O)OC)oc2c1C(=O)/C=C/c1ccc(OC)cc1	44.4 µM	40.6 µM	> 100 µM	2.75 µM	6.99 µM	4.42 µM	31.3 µM	13.8 µM	13.8 µM	8.44 µM	22.8	17.6 µM	57.8	0.246 µM	2.32	1.58	13.8 µM	4.12 µM	4.86 µM	2.81 µM
NC(N)=N/N=C/c1c(-c2ccncc2)nc2sc(Cl)cn12	41.2 µM	40.4 µM	6.22 µM	> 100 µM	21.4 µM	21.1 µM	33.2 µM	48.1 µM	> 20.6 µM	18.9 µM	17.4	20.2 µM	2.55	42.7 µM	7.1	6.52	15.2 µM	22.4 µM	7.62 µM	4.89 µM
O=C(N/N=C/c1ccc(F)cc1)c1ccc(C(F)(F)F)nc1Nc1cccc(C(F)(F)F)c1	4.65 µM	6.15 µM	2.79 µM	4.84 µM	9.12 µM	3.34 µM	2.72 µM	4.56 µM	7.99 µM	10.2 µM	1.59	2.29 µM	0.65	1.68 µM	1.34	1.07	0.457 µM	1.17 µM	1.51 µM	1.64 µM
Cc1ccc(C2=C(Cl)C(=O)C(c3ccc(C)cc3)=C(Cl)C2=O)cc1	> 100 µM	> 100 µM	> 100 µM	> 100 µM	> 100 µM	> 100 µM	> 100 µM	> 100 µM	> 100 µM	> 100 µM										
CC1=C(CNO)C2=C(C)C3(CC3)[C@@](C)(O)C(=O)C2=C1	3.28 µM	17.6 µM	5.21 µM	7 µM	17.4 µM	72.9 µM	2.41 µM	5.22 µM	25.5 µM	2.86 µM	1.6	1.17 µM	1.85	0.898 µM	1.4	21.1	0.726 µM	1.13 µM	1.81 µM	1.38 µM
CN(C)c1ccc(N=C2C=CC(=C(C#N)C#N)c3ccccc32)cc1	1.37 µM	13.7 µM	5.26 µM	6.11 µM	10.6 µM	11.6 µM	8.6 µM	6.53 µM	12.7 µM	5.71 µM										
CCOc1ccccc1NC(=O)C1=C(C)NC(C)=C(C(=O)Nc2ccccc2OCC)C1c1ccc([N+](=O)[O-])cc1	> 100 µM	> 100 µM	> 100 µM	> 100 µM	> 100 µM	> 100 µM	> 100 µM	> 100 µM	> 100 µM	> 100 µM										
O=C(Oc1ccc2c(c1)CN(Cc1ccccc1)CO2)c1ccccc1	31.7 µM	40.6 µM	30.6 µM	27 µM	33.6 µM	52.7 µM	30.4 µM	34 µM	34.1 µM	32.5 µM										
COc1c(O)c2c3c(c1OC)-c1ccccc1CC3N(S(=O)(=O)c1ccc(C)cc1)CC2 (stereo not drawn)	5.54 µM	> 50 µM	> 50 µM	> 50 µM	> 50 µM	4.25 µM	4.12 µM	38.4 µM	> 50 µM	3.92 µM	0.372	2 µM	1.9	2.13 µM	2.69	1.51	1.34 µM	1.96 µM	3.29 µM	0.933 µM
CCCCCCCCCCCCOC1C(C(CC(=O)N2CCN(Cc3ccc4c(c3)OCO4)CC2)NS(=O)(=O)c2cc(Cl)cc(Cl)c2)OC2OC(C)(C)OC21 (stereo not drawn)	> 100 µM	> 100 µM	36.7 µM	> 100 µM	> 100 µM	> 47.5 µM	28.1 µM	> 100 µM	> 100 µM	> 100 µM	43.4	8.48 µM	6.69	14 µM	6.49	3.79	6.43 µM	> 100 µM	44.7 µM	> 45 µM
CNCc1ccc(-c2[nH]c3cc(F)cc4c3c2CCNC4=O)cc1	53.8 µM	> 71.2 µM	38.6 µM	> 72.2 µM	55.5 µM	73.3 µM	26.2 µM	56 µM	57 µM	27.3 µM	21.6	19.4 µM	13.1	20.8 µM	19.1	23.7	12.3 µM	18.6 µM	17.3 µM	9.49 µM
C=C(Cn1c2ccccc2c(=O)c2ccccc21)c1ccc(C(=O)Nc2ccccc2N)cc1	> 27.2 µM	> 100 µM	> 100 µM	> 100 µM	> 100 µM	3.06 µM	> 100 µM	> 100 µM	> 100 µM	> 28 µM		28.5 µM	4.5	> 19.8 µM	> 100	0.36	> 100 µM	5.99 µM		1.08 µM
Nc1nc(=S)[nH]c(C(=O)Nc2nccs2)c1-c1ccccc1	> 100 µM	> 100 µM	> 100 µM	> 100 µM	> 100 µM	> 100 µM	> 100 µM	> 100 µM	> 100 µM	> 100 µM										
CC1=C2[C@@H](CC1)[C@]1(C)O[C@@](C3CC3)(C[C@H]1OC(=O)CO)[C@H]2OC(=O)/C=C/c1ccccc1	0.605 µM	27.3 µM	30.9 µM	42.7 µM	36.5 µM	54.4 µM	0.858 µM	29.6 µM	35.6 µM	30.5 µM	0.0998	13.2 µM	16	19.7 µM	17.5	19.8	0.0218 µM	15.6 µM	17.6 µM	12.6 µM
CNCc1cccc2c1OCCOCCOCCC(C)S(=O)(=O)c1ccc(cc1)-c1cnc(N)c(n1)C(=O)N2 (stereo not drawn)	2.14 µM	6.83 µM	3.35 µM	4.78 µM	11.4 µM	5.12 µM	1.6 µM	2.87 µM	5.52 µM	1.59 µM	0.139	1.09 µM	1.18	0.659 µM	3.82	2.05	0.175 µM	0.525 µM	2.5 µM	0.119 µM
O=c1nc2[nH]c3c(-c4n[nH]c(=O)[nH]c4=O)cccc3c2n[nH]1	> 100 µM	> 100 µM	> 100 µM	> 100 µM	> 100 µM	> 100 µM	> 100 µM	> 100 µM	> 100 µM	> 100 µM	> 100	> 100 µM	> 100	> 100 µM	> 100	> 100	> 100 µM	> 100 µM	> 100 µM	> 100 µM
Cc1ccc(S(=O)(=O)N2CCC(C(=O)O)(c3ccccc3)CC2)cc1	> 100 µM	> 100 µM	> 100 µM	> 100 µM	> 100 µM	> 100 µM	> 100 µM	> 100 µM	> 100 µM	> 100 µM										
CC(=O)OCC1OC(n2c(=S)n(-c3ccccc3)c(=O)c3cc(Br)cc(Br)c32)C(OC(C)=O)C(OC(C)=O)C1OC(C)=O (stereo not drawn)	> 100 µM	> 100 µM	> 100 µM	> 100 µM	> 100 µM	> 100 µM	76.3 µM and > 100 µM	> 100 µM	85.5 µM and > 100 µM	92.5 µM and > 100 µM				35.8 µM and > 100 µM		33.3	19.4 µM and 64.2 µM	45.1 µM and > 100 µM	28.5 µM and 71.1 µM	
CC1(C)CC[C@]2(C(=O)O)CC[C@]3(C)C(=CC[C@@H]4[C@@]5(C)C/C(=C/c6ccco6)C(=O)C(C)(C)[C@@H]5CC[C@]43C)[C@@H]2C1	45.6 µM	23.5 µM	12 µM	22.2 µM	32.5 µM	10.7 µM	13.6 µM	79.4 µM	> 100 µM	54.6 µM	6.14	2.6 µM	2.9	4.48 µM	6.15	2.22	3.3 µM	4.22 µM	4.02 µM	3.04 µM
COc1cccc(C2C(C#N)=C(N)Oc3cc4c(cc32)OCO4)c1 (stereo not drawn)	3 µM	42.6 µM	11 µM	30.8 µM	> 100 µM	29.9 µM	0.0927 µM	4.71 µM	> 100 µM	46.5 µM	0.0311	0.0649 µM	0.0459	0.305 µM	0.661	0.0828	0.029 µM	0.0508 µM	0.0682 µM	0.0275 µM
